Results: patent US20080317857A1, “V-Atpase Inhibitors of Use in the Treatment of Septic Shock” (Brane Discovery S.r.l., priority 2005, published 2008)

Tested on: murine encephalitogenic T lymphocytes in inflamed brain venules
Test: Intravital microscopy: lymphocyte recruitment in inflamed brain microcirculation
Type: in vivo, mice (SJL)
Conditions: cells treated with 50 μM for 1 h
Description: Murine encephalitogenic T lymphocytes were labeled with either green CMFDA (5-chloromethylfluorescein diacetate; Molecular Probes) or orange CMTMR (5-(and-6)-(((4-chloromethyl)benzoyl)amino)tetramethylrhodamine) (Molecular Probes). SJL young females (Harlan-Nossan, Udine, Italy) were housed and used according to current European Community rules. In order to inflame brain endothelium, mice were injected intraperitoneally with 12 μg lipopolysaccharide (LPS) (Escherichia coli 026:B6; Sigma) 5 to 6 hours before the intravital experiment was started. […] Fluorescence-labeled cells (2×10^6)/condition were slowly injected into the carotid artery through a digital pump. Images were visualized by using a silicon-intensified target videocamera (VE-1000 SIT; Dage MTI, Michigan City, Ind.) and a Sony SSM-125CE monitor and were recorded using a digital videocassette recorder (NV-DV10000; Panasonic).
Video analysis was performed by playback of digital videotapes. Vessel diameter (D), hemodynamic parameters, and the velocities of rolling were determined by using a personal computer-based system. The velocities of 20 or more consecutive freely flowing cells per venule were calculated.
From the velocity of the fastest cell in each venule (Vfast), we calculated the mean blood flow velocities (Vm): […]. […]

COC(=O)c1[nH]c2cc(OC)c(OC)cc2c1-c1ccc(OC)cc1 [Example 1]
autoreactive lymphocyte rolling: no effect
sticking/firm arrest: highly blocked
